In patent EP0266640A2 (Euro-Celtique S.A., priority 1986, dated 1988):

Tested on: asthmatic patients
Assay: controlled triple-cross-over clinical study, body plethysmographic test of lung function (RAW, FEV1), with pulse and blood pressure
Type: in vivo
Description: In a controlled triple-cross-over study, in a body phlethysmographic test of the lung function, the effectiveness of and tolerance to the individual substances compared to the combination were investigated.
The investigation was carried out on three in-patients with chronic-obstructive airway diseases.
The associated medication with dosing aerosols was reduced to a minimum and noted in a special test report. It was ensured that no aerosol was used at least eight hours prior to each lung function investigation.
The medication sequence was randomised, with a wash-out-phase of two days after each medication.
It was ensured that all the patients had received no xanthine 24 hours before the controlled investigation (lung function test and determination of reversibility).
The lung function (RAW and FEV₁) and the pulse of the patients were measured on the first and third day always at the same time of day, as shown in Fig. 3. On the third day of the investigation, after the final measurement of lung function, the reversibility was again determined, 15 minutes after inhalation of 400 microgram Fenoterol.

CC(Cc1ccc(O)cc1)NCC(O)c1cc(O)cc(O)c1 (stereo not shown) [Fenoterol]
rise of FEV₁ mean-value (reversibility) (start of investigation, after inhalation of 400 microgram): 45% | FEV₁ mean-value (start of investigation, after inhalation of 400 microgram, baseline ca. 1,5 l): ca. 2.2 l | reduction of airway resistance (reversibility) (start of investigation, after inhalation of 400 microgram, referred to the initial value): 50%

Cn1c(=O)c2[nH]cnc2n(C)c1=O [Theophylline, 1,3-dimethylxanthine]
remaining reversibility (further improvement by inhalation of the dosing aerosol) (third day, after inhalation of 400 microgram Fenoterol, 10 mg Nifedipine alone or 300 mg Theophylline alone twice daily): still left a considerable further improvement
